# Experimental data taken from patent publication US20040228844A1, “Method for controlling harmful plant-parasitic nematodes” (priority 2003, published 2004).
# Assays:
# [1] = test system: Meloidogyne incognita; assay: Test Example 2: gall control on cucumber seedlings in nematode-infested soil; assay type: in vivo; details: 20 kg /1000 m^2, 32 days after transplantation, (C−S)×100/C
# Procedure: To 3 kg of the Meloidogyne incognita-infested soil was applied each (100 mL) of the test solutions diluted at given concentrations and then the resulting soil was thoroughly mixed.
# The gall control value was calculated by the following equation:
# Gall control value=(C−S)×100/C
# wherein C is an average gall number per plant in a non-treated group, and S is an average gall number per plant in a treated group.
# [2] = test system: Meloidogyne incognita; assay: Test Example 1: root-knot damage of cucumber seedlings in nematode-infested soil; details: 20 kg per 1000 m^2, soil mixing, 50 days after transplantation, scale 0 (no root-knots) to 5 (dead), average per 10 plants
# Procedure: To 5 kg of nematode-infested soil (nematode density: 2255 nematodes per 20 g (investigation method: Bellman's method)) in which Meloidogyne incognita seriously grew was applied each (100 mL) of the test solutions diluted at given concentrations: and then the resulting soil was thoroughly mixed. […] (diameter: about 3 mm), 500 g of each of the soil to which each test solution was applied and mixed was placed. Cucumber seedlings (14 days after sowing, 2 plants per cup, 5 replications) were transplanted in the cup, which contained each treated soil. After transplantation, the plants were left in a glass greenhouse.
# The degree of root-knot damages was evaluated according to the following criteria:
# 5: The plant is withered and dead due to parasitism of nematodes.
# 4: A number of root-knots, which range to form-large root-knots, are observed on the entire roots.
# 3: Root-knots are observed on the entire roots, and large root-knots being partly formed.
# 2: Formation of root-knots is partly observed on the root, and some of them ranging, but no large root-knot is observed.
# 1: A little formation of root-knots is observed.
# 0: No formation of root-knots is found.
structure (smiles),measurement,setting,value
"CSCC[C@H](N)C(=O)O [Component A Agent, methionine]",Gall Control Value,[1],44
same,Average Degree of Root-Knots Damages,[2],3.2
